Here are results for 26 compounds from patent US8575201B2 (Boehringer Ingelheim International GmbH, priority 2010, dated 2013).

Assay [1] has as its target recombinant human FLAP protein (Homo sapiens (Human), UniProt P20292). The assay can be described thus: FLAP binding assay (Scintillation Proximity Assay, displacement of [125I]L-691,831). Particulars: read-out: FLAP SPA IC50. The procedure:
Assessment of Biological Properties 1. Binding Assay: Compounds are assessed for the ability to bind to FLAP in a binding assay that measures compound-specific displacement of an iodinated (^125I) FLAP inhibitor via a Scintillation Proximity Assay format (adapted from S. Charleson et al., Mol. Pharmacol., 1992, 41, 873-879). […] The cells are lysed with a Dounce homogenizer and the material is centrifuged at 10,000×g for 10 minutes. The supernatant is then collected and centrifuged at 100,000×g for 60 minutes. To prepare membrane protein for an assay, an aliquot of the 100,000×g pellet is resuspended in 1 ml of buffer A, Dounce homogenized, and finally subjected to polytron mixing (30 seconds). […] Mol. Pharmacol., 41, 873-879, 1992) and finally 50 μl of the bead/protein mixture. (final concentrations: beads, 200 μg/well; protein, 5 μg/well; […] The plates are shaken for 2 h before reading on a Microbeta plate reader.

Assay [2] relates to synthesis of LTB4 in human whole blood. Kind of assay: Human whole blood LTB4 production inhibition assay. Type of assay: cell-based. Conditions: calcimycin stimulated, read-out: hWB LTB4 IC50. The procedure:
Compounds are additionally tested in a human whole blood assay to determine their ability to inhibit the synthesis of LTB4 in a cellular system. Compounds are combined with heparinized human whole blood and incubated for 15 minutes at 37° C. Calcimycin (20 μM final, prepared in phosphate-buffered saline, pH 7.4) is then added and the mixture is incubated for another 30 minutes at 37° C. The samples are centrifuged for 5 min at low speed (1500×g) and the plasma layer is removed. Plasma LTB4 concentrations are then measured using an antibody-based homogenous time-resolved fluorescence method (CisBio, Bedford, Mass.).

SMILES strings stand for the structures.

Chain of recombinant human FLAP protein (P20292 whole entry): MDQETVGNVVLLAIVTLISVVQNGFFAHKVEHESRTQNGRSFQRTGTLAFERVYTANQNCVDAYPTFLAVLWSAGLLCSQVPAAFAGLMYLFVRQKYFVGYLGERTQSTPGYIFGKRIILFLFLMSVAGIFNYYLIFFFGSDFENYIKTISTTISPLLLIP

A word on the IC50: it is the concentration that inhibits the measured activity by half. Turning to `Nc1ncc(-c2ccc(C3(c4noc(-c5cc(N)[nH]n5)n4)CCC3)cn2)cn1` [Example 10, 5-(5-{1-[5-(5-amino-1H-pyrazol-3-yl)-1,2,4-oxadiazol-3-yl]cyclobutyl}pyridin-2-yl)pyrimidin-2-amine], the IC50 in assay [1] turned out to be 30 nM; in assay [2] it was 650 nM.
For `CC(C)(CO)n1cc(-c2nc(C3(c4ccc(-c5cnc(N)nc5)nc4)CCC3)no2)cn1` [Example 30, 2-[4-(3-{1-[6-(2-aminopyrimidin-5-yl)pyridin-3-yl]cyclobutyl}-1,2,4-oxadiazol-5-yl)-1H-pyrazol-1-yl]-2-methylpropan-1-ol] the same measures were 33 nM and 400 nM.
The matching figures for `Nc1ncc(-c2ccc(C3(c4noc(-c5nc[nH]n5)n4)CCC3)cn2)cn1` [Example 120, 5-(5-{1-[5-(1H-1,2,4-triazol-3-yl)-1,2,4-oxadiazol-3-yl]cyclobutyl}pyridin-2-yl)pyrimidin-2-amine]: 200 nM and above 5000 nM.
For `Nc1ncc(-c2ccc(C3(c4noc(-c5cc[nH]n5)n4)CCC3)cn2)cn1` [Example 4, 5-(5-{1-[5-(1H-pyrazol-3-yl)-1,2,4-oxadiazol-3-yl]cyclobutyl}pyridin-2-yl)pyrimidin-2-amine] the same measures were 17 nM and 430 nM.
For the compound `Nc1ncc(-c2ccc(C3(c4noc(-c5ccc(N6CC[C@H](O)C6)nc5)n4)CCC3)cn2)cn1` [Example 48, (3S)-1-[5-(3-{1-[6-(2-aminopyrimidin-5-yl)pyridin-3-yl]cyclobutyl}-1,2,4-oxadiazol-5-yl)pyridin-2-yl]pyrrolidin-3-ol], the IC50 in assay [1] was 2.2 nM; in assay [2], 140 nM.
In the case of `CC(C)(O)c1ccc(-c2nc(C3(c4ccc(-c5cnc(N)nc5)nc4)CCC3)no2)cn1` [Example 82, 2-[5-(3-{1-[6-(2-aminopyrimidin-5-yl)pyridin-3-yl]cyclobutyl}-1,2,4-oxadiazol-5-yl)pyridin-2-yl]propan-2-ol], the IC50 in assay [1] was 17 nM; in assay [2], 480 nM.
On to `Nc1ncc(-c2ccc(C3(c4noc(-c5cnc(N6CCNCC6)cn5)n4)CCC3)cn2)cn1` [Example 60, 5-[5-(1-{5-[5-(piperazin-1-yl)pyrazin-2-yl]-1,2,4-oxadiazol-3-yl}cyclobutyl)pyridin-2-yl]pyrimidin-2-amine], for which the IC50 was 7.9 nM in assay [1] and 150 nM in assay [2].
Regarding `CNc1cnc(-c2ccc(C3(c4noc(-c5cnn(C)c5)n4)CCC3)cn2)cn1` [Example 168, Methyl-[5-(5-{1-[5-(1-methyl-1H-pyrazol-4-yl)-[1,2,4]oxadiazol-3-yl]-cyclobutyl}-pyridin-2-yl)-pyrazin-2-yl]-amine], the figures for the IC50 in assay [1] and in assay [2] were 33 nM and 99 nM, respectively.
On to `Nc1ncc(-c2ccc(C3(c4noc(-c5cccnc5)n4)CCOCC3)nc2)cn1` [Example 137, 5-(6-{4-[5-(pyridin-3-yl)-1,2,4-oxadiazol-3-yl]tetrahydro-2H-pyran-4-yl}pyridin-3-yl)pyrimidin-2-amine], for which the figures for the IC50 in assay [1] and in assay [2] were 580 nM and 3000 nM, respectively.
The matching figures for `Nc1ncc(-c2ccc(C3(c4noc(-c5cnn(C6CCS(=O)(=O)C6)c5)n4)CCC3)cn2)cn1` (stereo not shown) [Example 139, 5-[5-(1-{5-[1-(1,1-dioxidotetrahydrothiophen-3-yl)-1H-pyrazol-4-yl]-1,2,4-oxadiazol-3-yl}cyclobutyl)pyridin-2-yl]pyrimidin-2-amine]: 28 nM and 340 nM.
As to `Nc1ncc(-c2ccc(C3(c4noc(-c5cnn(CCN6CCOCC6)c5)n4)CCC3)cn2)cn1` [Example 140, 5-{5-[1-(5-{1-[2-(morpholin-4-yl)ethyl]-1H-pyrazol-4-yl}-1,2,4-oxadiazol-3-yl)cyclobutyl]pyridin-2-yl}pyrimidin-2-amine], the 50% inhibitory concentration (IC50) in assay [1] was determined as 15 nM; in assay [2] it was 110 nM.
In the case of `CN(C)c1ncccc1-c1nc(C2(c3ccc(-c4cnc(N)nc4)nc3)CCC2)no1` [Example 126, 5-[5-(1-{5-[2-(dimethylamino)pyridin-3-yl]-1,2,4-oxadiazol-3-yl}cyclobutyl)pyridin-2-yl]pyrimidin-2-amine], the IC50 is 34 nM in assay [1] and above 5000 nM in assay [2].
The matching figures for `Cn1cccc(-c2nc(C3(c4ccc(-c5cnc(N)nc5)nc4)CCC3)no2)c1=O` [Example 77, 3-(3-{1-[6-(2-aminopyrimidin-5-yl)pyridin-3-yl]cyclobutyl}-1,2,4-oxadiazol-5-yl)-1-methylpyridin-2(1H)-one]: 51 nM and 490 nM.
As to `Nc1ncc(-c2ccc(C3(c4noc(-c5ccc(NC(CO)CO)nc5)n4)CCC3)cn2)cn1` [Example 33, 2-{[5-(3-{1-[6-(2-aminopyrimidin-5-yl)pyridin-3-yl]cyclobutyl}-1,2,4-oxadiazol-5-yl)pyridin-2-yl]amino}propane-1,3-diol], the IC50 came out at 2.2 nM in assay [1] and 2600 nM in assay [2].
Consider `Nc1ncc(-c2ccc(C3(c4noc(-c5cccnc5)n4)CCOCC3)cn2)cn1` [Example 72, 5-(5-{4-[5-(pyridin-3-yl)-1,2,4-oxadiazol-3-yl]tetrahydro-2H-pyran-4-yl}pyridin-2-yl)pyrimidin-2-amine], for which the results for the IC50 in assay [1] and in assay [2] were 610 nM and 2300 nM, respectively.
On to `Cc1ncccc1-c1nc(C2(c3ccc(-c4cnc(N)nc4)nc3)CCC2)no1` [Example 85, 5-(5-{1-[5-(2-methylpyridin-3-yl)-1,2,4-oxadiazol-3-yl]cyclobutyl}pyridin-2-yl)pyrimidin-2-amine], for which the IC50 came to 21 nM in assay [1] and 1000 nM in assay [2].
In the case of `CNc1ncccc1-c1nc(C2(c3ccc(-c4cnc(N)nc4)nc3)CCC2)no1` [Example 122, 5-[5-(1-{5-[2-(methylamino)pyridin-3-yl]-1,2,4-oxadiazol-3-yl}cyclobutyl)pyridin-2-yl]pyrimidin-2-amine], the values for the IC50 in assay [1] and in assay [2] were 28 nM and 3800 nM, respectively.
Consider `Nc1cnc(-c2ccc(C3(c4noc(-c5cnn(C6COC6)c5)n4)CCC3)cn2)cn1` [Example 145], for which the IC50 in assay [1] was found to be 8.3 nM; in assay [2], 29 nM.
As for `Nc1ncc(-c2ccc(C3(c4noc(-c5ccncc5)n4)CCC3)cn2)cn1` [Example 87, 5-(5-{1-[5-(pyridin-4-yl)-1,2,4-oxadiazol-3-yl]cyclobutyl}pyridin-2-yl)pyrimidin-2-amine], the figures for the IC50 in assay [1] and in assay [2] were 55 nM and 1000 nM, respectively.
The matching figures for `Nc1ncc(-c2ccc(C3(c4noc(-c5ccc(N6CCS(=O)(=O)CC6)nc5)n4)CCC3)cn2)cn1` [Example 49, 5-[5-(1-{5-[6-(1,1-dioxidothiomorpholin-4-yl)pyridin-3-yl]-1,2,4-oxadiazol-3-yl}cyclobutyl)pyridin-2-yl]pyrimidin-2-amine]: 3.7 nM and 180 nM.
For `Nc1ncc(-c2ccc(C3(c4noc(-c5ccc(N6CCCC6)nc5)n4)CCC3)cn2)cn1` [Example 112, 5-[5-(1-{5-[6-(pyrrolidin-1-yl)pyridin-3-yl]-1,2,4-oxadiazol-3-yl}cyclobutyl)pyridin-2-yl]pyrimidin-2-amine] the same measures were 3.3 nM and 570 nM.
As to `Nc1ncc(-c2ccc(C3(c4noc(-c5ccc(N6CCC[C@@H]6CO)nc5)n4)CCC3)cn2)cn1` [Example 45, {(2R)-1-[5-(3-{1-[6-(2-aminopyrimidin-5-yl)pyridin-3-yl]cyclobutyl}-1,2,4-oxadiazol-5-yl)pyridin-2-yl]pyrrolidin-2-yl}methanol], the IC50 was found to be 3.1 nM in assay [1] and 750 nM in assay [2].
Regarding `Nc1ncc(-c2ccc(C3(c4noc(-c5cnccc5O)n4)CCC3)cn2)cn1` [Example 107, 3-(3-{1-[6-(2-aminopyrimidin-5-yl)pyridin-3-yl]cyclobutyl}-1,2,4-oxadiazol-5-yl)pyridin-4-ol], the concentration for half-maximal inhibition (IC50) in assay [1] came out at 190 nM; in assay [2] it was 4000 nM.
The matching figures for `Nc1ncc(-c2ccc(C3(c4noc(-c5cccnc5N5CCOCC5)n4)CCC3)cn2)cn1` [Example 128, 5-[5-(1-{5-[2-(morpholin-4-yl)pyridin-3-yl]-1,2,4-oxadiazol-3-yl}cyclobutyl)pyridin-2-yl]pyrimidin-2-amine]: 66 nM and 2700 nM.
As for `Nc1ncc(-c2ccc(C3(c4noc(-c5ccc(N6CC[C@@H](O)C6)nc5)n4)CCC3)cn2)cn1` [Example 43, (3R)-1-[5-(3-{1-[6-(2-aminopyrimidin-5-yl)pyridin-3-yl]cyclobutyl}-1,2,4-oxadiazol-5-yl)pyridin-2-yl]pyrrolidin-3-ol], the figures for the IC50 in assay [1] and in assay [2] were 1.2 nM and 170 nM, respectively.
For `CN(C)C(=O)Cn1cc(-c2nc(C3(c4ccc(-c5ccc(N)nc5)nc4)CCC3)no2)cn1` [Example 163, 2-(4-{3-[1-(6′-amino-[2,3′]bipyridinyl-5-yl)-cyclobutyl]-[1,2,4]oxadiazol-5-yl}-pyrazol-1-yl)-N,N-dimethyl-acetamide], the IC50 came to 110 nM in assay [1] and 300 nM in assay [2].
